The text below walks through data of patent US20230167181A1, “PHARMACEUTICAL COMPOSITIONS AND METHODS OF MANUFACTURE USING THERMALLY CONDUCTIVE EXCIPIENTS” (BOARD OF REGENTS, THE UNIVERSITY OF TEXAS SYSTEM, priority 2020, published 2023).

A short description of this data set: Hot stage polarized light microscopy (HSPLM). The format is physicochemical. To be noted: heat only, 130° C. or 160° C., FIG. 3. How it is done:
Hot stage polarized light microscopy (HSPLM) and polarized light microscopy (PLM) were used to determine amorphous nature and visual interactions between excipients when melting. Samples were prepared by lightly spreading physical mixtures of the two compositions onto a glass slide. An Olympus BX60 microscope (Olympus Corp., Center Valley, Pa.) with Insight QE camera (Diagnostic Instruments, Inc., Sterling Heights, Mich.) was used for visual observation. […] Images were captured using Spot Advance Software (Diagnostic Instruments, Inc.).

With `CS(=O)(=O)c1cc(C2(NC(=O)c3cncc4c3cnn4-c3ccc(F)cc3)CC2)ccn1` [BI-667], the “dissolving of BI-667 in HPMCAS-HMP when no mixing was applied” value is given as “not dissolve”.
